Data: US20220288020A1, “METHOD OF TREATING NEOPLASTIC DISEASES WITH A CDC42-SPECIFIC INHIBITOR” (Children's Hospital Medical Center, priority 2019, published 2022)

Columns and labels:
[1] = system: MC38 mouse colon cancer cells; experiment: Prophylactic CASIN treatment, syngeneic MC38 tumor model in C57BL/6 mice; type: in vivo
Method: FIG. 4. Prophylactic CASIN causes anti-tumor immunity. C57BL/6 mice were injected (i.p.) with vehicle or 30 mg/kg body weight of CASIN twice a day for one week and then 40 mg/kg body weight of CASIN once a day until the end of the experiment. One day after the first CASIN treatment, the mice were injected (s.c.) with MC38 (8×10^5). Tumor growth was monitored (A). Upon euthanasia, tumors were dissected and the expression of IFN-γ^+, IL-4^+ and/or IL-17^+ within CD4^+Foxp3^+ (B), CD4^+Foxp3^− (C), and CD8^+ (D) cells was analyzed by flow cytometry. n=7. Error bars indicate SD. **p<0.01; *p<0.05. In FIGS. 4(A)-(D), data for vehicle administration is the top line (furthest from the x-axis) in FIG. 4A and left side of each data representation in FIGS. 4(B)-(D); and data for CASIN administration is the bottom line (closest to the x-axis) in FIG. 4(A) and right side of each data representation in FIGS. 4(B)-(D).
(§1) The Cdc42 conditional knockout mice and CASIN were developed in CCHMC by Dr. Yi Zheng lab (Yang L, Wang L, Zheng Y. Gene targeting of Cdc42 and Cdc42GAP affirms the critical involvement of Cdc42 in filopodia induction, directed migration, and proliferation in primary mouse embryonic fibroblasts. Mol Biol Cell. 2006 November; 17(11):4675-85) (Liu W, Du W, Shang X, Wang L, Evelyn C, Florian M C, A Ryan M, Rayes A, Zhao X, Setchell K, Meller J, Guo F, Nassar N, Geiger H, Pang Q, Zheng Y. Rational identification of a Cdc42 inhibitor presents a new regimen for long-term hematopoietic stem cell mobilization. Leukemia. 2019 March; 33(3):749-761). In the examples below, the effects of Cdc42 deletion and CASIN on T-cell immunity against tumor growth of colorectal cancer cells and/or pancreatic cancer cells was evaluated. […]
C57BL/6 mice were injected (i.p.) with vehicle or 30 mg/kg body weight of CASIN twice a day for one week and then 40 mg/kg body weight of CASIN once a day until the end of the experiment. […] Tumor growth was monitored. […]

[2] = system: MC38 mouse colon cancer cells; experiment: Therapeutic CASIN treatment upon tumor onset, MC38 tumor model in C57BL/6 mice, with or without Anti-CD4/CD8 T-cell depletion; type: in vivo
Method: FIG. 5. Therapeutic CASIN treatment causes anti-tumor T-cell immunity. C57BL/6 mice were inoculated (s.c.) with MC38 (8×10^5) at day 1 and injected (i.p.) with Anti-CD4/CD8 neutralizing antibodies (5 mg/kg body weight for each antibody) or isotype control antibody once every 4 days starting at day 1. Starting from day 10 when tumor onset was observed, the mice were treated with vehicle or CASIN as described for FIG. 4 above. Tumor volume was monitored (A). At day 14, depletion of T-cells in peripheral blood from the mice treated with Anti-CD4/CD8 neutralizing antibodies was confirmed by flow cytometry (data not shown). Upon euthanasia, tumors were dissected from isotype control antibody-treated mice. The expression of IFN-γ^+ and IL-17^+ in CD4^+Foxp3^+ cells was analyzed by flow cytometry (B). CD3^+ T-cells were visualized by immunohistochemistry using anti-CD3 antibody (C). The expression of IFN-γ^+ and/or IL-17^+ in CD4^+Foxp3^− (D) and CD8^+ cells (E) was analyzed by flow cytometry. n=5. Error bars indicate SD. **p<0.01; *p<0.05. […]
as §1, with “Leukemia. 2019 March; 33(3):749-761).” left out
C57BL/6 mice were injected (s.c.) with MC38 (8×10^5) at day 1 and injected (i.p.) with Anti-CD4/CD8 neutralizing antibodies (5 mg/kg body weight for each antibody) or isotype control antibody once every 4 days starting at day 1. […] Tumor volume was monitored. […]

[3] = system: Splenic CD4+ YFP+ Tregs from Cdc42+/- mice; experiment: Stability of Cdc42+/- Tregs cultured with or without acetazolamide (flow cytometry, IFN-γ+ cells); type: cell-based, mouse; conditions: Splenic CD4+ YFP+ Tregs from Cdc42+/- mice cultured with AZA; FIG. 3E
Method: (§2) FIG. 3. […] (A, B) Treg-specific heterozygous deletion of Cdc42 upregulates CAI and alkalizes extracellular pH of Tregs. Splenic CD4^+ YFP^+ Tregs were flow-sorted from WT and Cdc42^+/− mice. CAI expression was detected by Q-PCR (A). Another aliquot of the cells were cultured with Anti-CD3/CD28 and IL-2 for 36 hrs. pH of the culture medium (pHe) was measured by a pH meter. (C, D) Extracellular alkalization destabilizes Tregs. Splenic CD4^+ YFP^+ Tregs from WT mice were cultured as described in B, with regular medium of pH 7.4 or medium of pH 7.56 (C). Alternatively, the cells were cultured with conditional medium (CM) from WT Treg culture or from Cdc42^+/− Treg culture (D). Percentages of IFN-γ^+ cells within Tregs (left) and non-Tregs (right) were analyzed by flow cytometry. (E) Inhibition of CAI by acetazolamide (AZA) rescues instability of Cdc42^+/− Tregs. […] Percentages of IFN-γ^+ cells within Tregs (left) and non-Tregs (right) were analyzed by flow cytometry. […] Three days after starting AZA injection, the mice were inoculated (s.c.) with MC38 (8×10^5) and tumor volume was recorded. n=4-7. […]
(§3) Cdc42^fl/+Foxp3^YFP-Cre and Cdc42^+/+Foxp3^YFP-Cre mice were inoculated (s.c.) with MC38 mouse colon cancer cells (8×10^5) or KPC mouse pancreatic cancer cells (8×10^5). Tumor volume was monitored. […] Quantitative real-time RT-PCR (Q-PCR) confirmed the upregulation of CAI in Cdc42^+/− Tregs (FIG. 3A). […]

[4] = system: MC38 mouse colon cancer cells; experiment: MC38 tumor growth in Cdc42+/- mice treated with AZA; type: in vivo; conditions: AZA 40 mg/kg i.p. once a day, started three days before MC38 (8×10^5) s.c.; vs Cdc42+/- + vehicle; FIG. 3F
Method: as §2, §3

Compound | tumor growth ([1]; CASIN i.p. 30 mg/kg twice a day for one week then 40 mg/kg once a day, started one day before MC38 s.c., vs vehicle, FIG. 4A) | Treg stability (IFN-γ+, IL-4+, IL-17+ within tumor CD4+Foxp3+ cells) ([1]; prophylactic CASIN, dissected tumors, flow cytometry, FIG. 4B) | effector T cells (tumor CD4+Foxp3- and CD8+ cells) ([1]; prophylactic CASIN, dissected tumors, flow cytometry, FIG. 4C, D) | tumor growth (tumor volume) ([2]; CASIN i.p. 30 mg/kg twice a day for one week then 40 mg/kg once a day from day 10 (tumor onset), isotype control antibody, FIG. 5A) | Treg stability (IFN-γ+ and IL-17+ in tumor CD4+Foxp3+ cells) ([2]; therapeutic CASIN, dissected tumors, flow cytometry, FIG. 5B) | effector T-cells (CD3+ T-cells, IFN-γ-producing CD4+Foxp3- and CD8+ cells) in tumors ([2]; therapeutic CASIN, immunohistochemistry and flow cytometry, FIG. 5C-E) | instability of Cdc42+/- Tregs (percentages of IFN-γ+ cells within Tregs) [3] | tumor growth (tumor volume) in Cdc42+/- mice [4]
OCCNC1CCCc2c1[nH]c1ccc(-c3ccccc3)cc21 (centres unmarked) [CASIN] | suppressing tumor growth | destabilizing Tregs | increasing effector T cells | inhibited tumor growth | Treg instability | increased effector T-cells |  | 
CC(=O)Nc1nnc(S(N)(=O)=O)s1 [acetazolamide] |  |  |  |  |  |  | rescued the instability | restores tumor growth
